Data reported in the NIST ThermoML archive (doi:10.1021/acs.jced.6b00197).

Tests used:
[1] = Liquid; for mass density: 293.15 K, 101.33 kPa, Pycnometric method; for Normal boiling temperature: Ebulliometric method (Recirculating still)
[2] = Boiling temperature at pressure P; settings: Liquid, Ebulliometric method (Recirculating still)
[3] = refractive index (Na D-line) (dimensionless); settings: 293.25 K; 101.33 kPa; Liquid; Standard Abbe refractometry

CC(=O)OCCC(C)C [3-methylbutyl ethanoate]
Settings	Normal boiling temperature [°C]	mass density [kg/m3]	refractive index
[1]	142.09	873	–
[3]	–	–	1.4008

[2]
Settings	Boiling temperature at pressure P [°C]
4.98 kPa	59.86
10.05 kPa	75.04
19.88 kPa	92.10
39.98 kPa	111.42
50.03 kPa	118.20
60.02 kPa	123.93
79.97 kPa	133.43
99.82 kPa	141.17
101.09 kPa	141.63
120.12 kPa	147.90
140.02 kPa	153.64
159.98 kPa	158.77
179.92 kPa	163.38
199.94 kPa	167.59

CC(C)CCO [3-methylbutan-1-ol]
Settings	Normal boiling temperature [°C]	mass density [kg/m3]	refractive index
[1]	131.30	810	–
[3]	–	–	1.4067

[2]
Settings	Boiling temperature at pressure P [°C]
5 kPa	62.70
10 kPa	75.77
19.99 kPa	90.18
40.01 kPa	106.36
49.99 kPa	111.97
59.99 kPa	116.67
79.99 kPa	124.46
100 kPa	130.86
101.31 kPa	131.21
120 kPa	136.04
139.99 kPa	141.06
159.99 kPa	145.36
180.01 kPa	149.28
200 kPa	152.86
